Reference: patent US11992535B2, “Compounds and probes for imaging huntingtin protein” (CHDI Foundation, Inc., priority 2019, dated 2024)
Read-outs that look alike come from different tables or passages of the source.

Target: aggregated MBP-HTT(1-89)Q46-His(6×) (Exonl-Q46) protein (Q46 protein aggregates) (Homo sapiens (Human), UniProt P42858, INS38QQQQQQQQQQQQQQQQQQQQQQQQQ)
Test: Q46 Radioligand Binding Assay
Conditions: read-out: Q46_RBA EC50_
Procedure: Q46 Radioligand Binding Assay
For radioligand binding assays (RBA) MBP-HTT(1-89)Q46-His(6×) (“Exonl-Q46”) protein was generated based on a previous publication (Scherzinger et al. Cell, Vol. 90, 549-558, Aug. 8, 1997). For experiments 30 μM MBP-Exonl-Q46 was incubated with 150 μg/mL thrombin in assay buffer (150 mM NaCl, 50 mM Tris pH 8.0) and 2 mM CaCl2 for 16 hours at 37° C. Aggregated Exonl-Q46 was pelleted by centrifugation for 5 minutes at 13,000 rpm in a bench top centrifuge and re-dissolved in the same volume of assay buffer. Test compounds were prepared by titration in DMSO at 11 concentrations from 63 μM to 2 nM. For the RBA, Q46 protein aggregates and test compounds were pre-incubated in assay buffer for 20 minutes at room temperature, in 100 μL/well in a 96-well plate (pp, round bottom). Then, ligand was added in 50 μL/well and incubated for 60 minutes at 37° C. Final assay concentrations were 1 μM to 30 μM test compound, 1 μM Exonl-Q46 protein (equivalent monomer concentration) and 0.3 nM ligand [^3H3-methyl]-5-((5-methoxypyridin-2-yl)methoxy)-2-(pyrazin-2-yl)benzo[d]oxazole. Samples were transferred onto GF/B filter plates and washed 2× with 200 μL PBS using a Filtermate Harvester. After drying filter plates for 1 hour at 55° C., the back of the plates were sealed with foil and 30 μL/well scintillation fluid (Packard MicroScint 40) added, incubated for 15 minutes in the dark and counted in a MicroBeta reader. For analysis, replicate data from independent assay plates were normalized towards 0% and 100% inhibition using control wells of vehicle (0% inhibition) and 1 μM unlabelled [^3H3-methyl]-5-((5-methoxypyridin-2-yl)methoxy)-2-(pyrazin-2-yl)benzo[d]oxazole (100% inhibition). IC50 values were determined with a sigmoidal inhibition model with four variables (top, bottom, slope, IC50) in a global fit using the normalized replicate data.

[1] = displacement of 0.3 nM [3H3-methyl]-5-((5-methoxypyridin-2-yl)methoxy)-2-(pyrazin-2-yl)benzo[d]oxazole from 1 μM Exonl-Q46 aggregates, method calls the values IC50
[2] = same radioligand displacement on Exonl-Q46 aggregates

aggregated MBP-HTT(1-89)Q46-His(6×) (Exonl-Q46) protein (Q46 protein aggregates), sequence (P42858 other isoform, or with tags, fused parts or gaps, stated change not applied): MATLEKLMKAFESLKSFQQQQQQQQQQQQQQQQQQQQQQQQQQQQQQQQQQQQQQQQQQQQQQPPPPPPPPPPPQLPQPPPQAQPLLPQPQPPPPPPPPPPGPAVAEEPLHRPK

| SMILES | EC50 [1] [µM] | EC50 [2] [µM] |
| --- | --- | --- |
| COc1ccc(C(=O)Nc2ccc3c(c2)CN(c2ccc(OC)nc2)CC3)nc1 [Example 11, 5-Methoxy-N-[2-(6-methoxypyridin-3-yl)-1,2,3,4-tetrahydroisoquinolin-7-yl]pyridine-2-carboxamide] | 0.0013 | < 0.1 |
| COc1ccc(OCCn2cnc3c2CN(C(=O)c2ccc(OC)nc2)CC3)nc1 [Example 30, 2-Methoxy-5-(3-{2-[(5-methoxypyridin-2-yl)oxy]ethyl}-3H,4H,5H,6H,7H-imidazo[4,5-c]pyridine-5-carbonyl)pyridine] | 0.704 | > 0.5 |
| COc1ccc(COc2cc3c(cn2)CCN(C(=O)c2ccc(OC)nc2)C3)nc1 [Example 16, 7-[(5-Methoxypyridin-2-yl)methoxy]-2-(6-methoxypyridine-3-carbonyl)-1,2,3,4-tetrahydro-2,6-naphthyridine] | 0.0395 | < 0.1 |
| COc1ccc(COc2ccc3c(c2)CN(C(=O)c2ccc(OC)nc2)C(C)C3)nc1 (centres unmarked) [Example 31, 7-[(5-Methoxypyridin-2-yl)methoxy]-2-(6-methoxypyridine-3-carbonyl)-3-methyl-1,2,3,4-tetrahydroisoquinoline] | 0.108 | 0.1 to 0.5 |
| COc1ccc(COc2ccc3c(c2)C(C)N(C(=O)c2ccc(OC)nc2)CC3)nc1 (centres unmarked) [Example 9, 7-[(5-Methoxypyridin-2-yl)methoxy]-2-(6-methoxypyridine-3-carbonyl)-1-methyl-1,2,3,4-tetrahydroisoquinoline] | 0.0145 | < 0.1 |
| COc1ccc(OCCOc2ccc3c(c2)CN(C(=O)c2ccc(OC)nc2)CC3)nc1 [Example 19, 7-{2-[(5-Methoxypyridin-2-yl)oxy]ethoxy}-2-(6-methoxypyridine-3-carbonyl)-1,2,3,4-tetrahydroisoquinoline] | 0.0374 | < 0.1 |
| COc1ccc(COc2ccc3c(c2)CN(C(=O)N2CCN(C)CC2)CC3)nc1 [Example 4, 7-[(5-Methoxypyridin-2-yl)methoxy]-2-(4-methylpiperazine-1-carbonyl)-1,2,3,4-tetrahydroisoquinoline] | 0.0732 | < 0.1 |
| COc1ccc(COc2ccc3c(c2)CN(C(=O)c2cn(C)c(=O)cn2)CC3)nc1 [Example 15, 5-{7-[(5-Methoxypyridin-2-yl)methoxy]-1,2,3,4-tetrahydroisoquinoline-2-carbonyl}-1-methyl-1,2-dihydropyrazin-2-one] | 0.0568 | < 0.1 |
| Cn1cc(C(=O)N2CCc3ccc(OCc4ccc(O)cn4)cc3C2)ccc1=O [Example 40, 5-(7-((5-Hydroxypyridin-2-yl)methoxy)-1,2,3,4-tetrahydroisoquinoline-2-carbonyl)-1-methylpyridin-2(1H)-one] | 0.333 | 0.1 to 0.5 |
| COc1ccc(C(=O)Nc2ccc3c(c2)CN(C(=O)c2ccc(OC)nc2)CC3)nc1 [Example 12] | 0.00172 | < 0.1 |
| COc1ccc(COc2ccc3c(c2)CN(S(=O)(=O)c2ccc(OC)nc2)CC3)nc1 [Example 18, 7-[(5-Methoxypyridin-2-yl)methoxy]-2-[(6-methoxypyridin-3-yl)sulfonyl]-1,2,3,4-tetrahydroisoquinoline] | 0.39 | 0.1 to 0.5 |
| COc1ccc(COc2ccc3c(c2)CN(C(=O)c2ccc(OCCF)nc2)CC3)nc1 [Example 34, (6-(2-Fluoroethoxy)pyridin-3-yl)(7-((5-methoxypyridin-2-yl)methoxy)-3,4-dihydroisoquinolin-2(1H)-yl)methanone] | 0.00248 | < 0.1 |
| COc1ccc(COc2ccc3c(c2)C(=O)N(Cc2ccc(OC)nc2)CC3)nc1 [Example 2, 7-[(5-Methoxypyridin-2-yl)methoxy]-2-[(6-methoxypyridin-3-yl)methyl]-1,2,3,4-tetrahydroisoquinolin-1-one] | 0.0985 | < 0.1 |
| COc1ccc(C(=O)N2CCc3ccc(OCc4ccc(OCF)cn4)cc3C2)cn1 [Example 37, (7-((5-(Fluoromethoxy)pyridin-2-yl)methoxy)-3,4-dihydroisoquino-lin-2(1H)-yl)(6-methoxypyridin-3-yl)methanone] | 0.0026 | < 0.1 |

Second part, the compound after the results:

| EC50 [1] [µM] | EC50 [2] [µM] | SMILES |
| --- | --- | --- |
| 0.0524 | < 0.1 | COc1ccc(C(=O)N2CCc3ccc(OCc4cnn(C)c4)cc3C2)cn1 [Example 1.27] |
| 0.0018 | < 0.1 | COc1ccc(COc2ccc3c(c2)CN(C(=O)c2ccc(N(C)C)nc2)CC3)nc1 [Example 1.14] |
| 0.0875 | < 0.1 | COc1ccc(COc2cccc3c2CN(C(=O)c2ccc(OC)nc2)CC3)nc1 [Example 1.13] |
| 0.00445 | < 0.1 | COc1ccc(COc2cnc3c(c2)CN(C(=O)c2ccc(OCCF)nc2)CC3)nc1 [Example 24.3] |
| 0.26 | 0.1 to 0.5 | COc1ccc(COc2ccc3c(c2)CN(c2ccn(C)c(=O)c2)CC3)nc1 [Example 27.2] |
| 0.00848 | < 0.1 | COc1ccc(COc2ccc3c(c2)CCN(C(=O)c2ccc(OC)nc2)C3)nc1 [Example 1.4] |
| 0.065 | < 0.1 | COc1ccc(COc2cnc3c(c2)CN(C(=O)c2cncc(OCCF)c2)CC3)nc1 [Example 1.18] |
| 0.0489 | < 0.1 | COc1ccc(COc2ccc3c(c2)CCN(C(=O)c2ccc(OC)nn2)C3)nc1 [Example 1.2] |
| 0.00786 | < 0.1 | COc1ccc(COc2cnc3c(c2)CN(c2cncc(OC)c2)CC3)nc1 [Example 6.3] |
|  | < 0.1 | COCCOc1ccc(C(=O)N2CCc3ncc(OCc4ccc(OC)cn4)cc3C2)cn1 [Example 24.2] |
| 0.00775 | < 0.1 | COc1ccc(COc2ccc3c(c2)CN(C(=O)c2ccc(=O)n(C)n2)CC3)nc1 [Example 1.1] |
| 0.00573 | < 0.1 | COc1ccc(COc2cnc3c(c2)CN(C(=O)c2ccc(OC)nc2)CC3)nc1 [Example 1.16] |
| 0.951 | > 0.5 | COc1ccc(COc2ccc3c(c2)CN(C(=O)C2CCN(C)CC2)CC3)nc1 [Example 1.15] |
| 0.0278 | < 0.1 | COc1ccc(COc2ccc3c(c2)CN(C(=O)c2cccnc2)CC3)nc1 [Example 1.9] |
| 0.00367 | < 0.1 | COc1ccc(COc2ccc3c(c2)CN(C(=O)N2CCc4cc(OC)ncc4C2)CC3)nc1 [Example 4.3] |
| 0.0464 | < 0.1 | COc1ccc(COc2ccc3c(c2)CCN(C(=O)c2ccc(=O)n(C)n2)C3)nc1 [Example 1.3] |
| 0.0965 | < 0.1 | COc1ccc(COc2ccc3c(c2)CN(C(C)=O)CC3)nc1 [Example 1.7] |
| 0.00165 | < 0.1 | COc1ccc(COc2ccc3c(c2)CN(C(=O)OCc2ccc(OC)nc2)CC3)nc1 [Example 5.1] |
| 0.0294 | < 0.1 | COc1ccc(COc2cnc3c(c2)CN(C(=O)c2cncc(OC)c2)CC3)nc1 [Example 1.28] |
| 1 | > 0.5 | COc1ccc(COc2ccc3c(c2)CN(C(=O)N2CC4(COC4)C2)CC3)nc1 [Example 4.4] |
| 0.0134 | < 0.1 | COc1ccc(COc2ccc3c(c2)CN(c2ccc(=O)n(C)n2)CC3)nc1 [Example 27.1] |
| 0.00787 | < 0.1 | COc1ccc(COc2ccc3c(c2)CN(C(=O)c2cnn(C)c2)CC3)nc1 [Example 1.24] |
